Measurements from patent US10350240B2, “Lanthanum carbonate hydroxide, lanthanum oxycarbonate and methods of their manufacture and use” (Spectrum Pharmaceuticals, Inc., priority 2010, dated 2019).

Key:
[1] = Phosphate binding at buffered pH 4.5 in dissolution unit, ICP-OES (% reaction completion); details: Renazorb-014 (LDOC), second block; 4.5 pH @30 min
From the text: For each run, both the Renazorb-013 (LCH) and the Renazorb-014 (LDOC) were characterized. Renazorb-013 is important to characterize because its features (particularly physical features such as BET-Surface-Area, Particle Size Distribution, crystalline phase by XRD, bulk density) strongly impact the same critical features of Renazorb-014. The typical characterization suite of Renazorb-013 and Renazorb-014 includes BET-Surface-Area (BET-SA), Particle Size Distribution (PSD), crystalline phase by XRD, bulk density, chloride content, lanthanum content, carbon content. On top of this Renazorb-014 is tested for phosphate binding performance (4.5 pH @30 min). Assays such as La, C, Cl are typically fairly consistent and not under scrutiny.
The following procedure may be used to determine the phosphate binding kinetics/capacity in solutions at a buffered pH=4.5 for lanthanum dioxycarbonate.
Briefly, a heated, acetate buffered acidic solution, adjusted to a known pH and containing a known amount of phosphate is stirred constantly throughout the test in a dissolution unit. To this stirred solution is added a known amount of lanthanum compound at time=0. […] All samples are diluted in the proper matrix and analyzed for phosphorus using an Inductively Coupled Plasma instrument equipped with an Optical Emission spectrophotometer detector (ICP-OES). […]

[2] = BET surface area; type: physicochemical; details: Renazorb-014 (LDOC), second block
From the text: By “relatively greater” it is meant that if the processes of the '782 patent and those of the present invention were run under generally identical conditions but with, for example, ammonium carbonate or bicarbonate used instead of sodium carbonate, the surface area, as measured by BET or otherwise, of the LCH or lanthanum oxycarbonates of the present invention would be even higher than that resulting from the practice of the '782 patent. The ammonium carbonate process of the present invention should yield BET surface areas (SA) in the 1 to 100 m^2/g range for LCH. […] To this end, as used herein “relatively greater BET surface area” refers to the greater BET surface area of the LDOC compound of the present invention when compared to the respective compound in U.S. Pat. No. 7,588,782 when made using similar ingredients, and under similar conditions but using the process described in that patent. As noted above, both processes are capable of producing very fine particles/high surface area. Again without wishing to be bound by any particular theory of operation, it may be that the greater porosity of the materials resulting from the present invention may effectively increase the overall surface area (or more reactive surfaces) allowing for, inter alia, improved binding kinetics. This is predicated on the porosity of individual or primary particles, not aggregates. Thus, it is believed that the primary particles of the invention provide relatively greater porosity than would be measured for particles made in accordance with the '782 patent. […] Furthermore, “porosity” as used herein means cumulative adsorption pore volume determined using a static pressure surface area analyzer with nitrogen as the adsorbate and calculating the pore size by The Barrett, Joyner, and Halenda (BJH) method (Barrett E. P., Loyner L. G. and Halenda P. P., The determination of pore volume and area distributions in porous substances. I. Computations from nitrogen isotherms, J. Am. Chem. Soc. 73 (1951) pp. 373-380).
As contemplated herein, BET surface area of the lanthanum compounds disclosed herein may be determined as provided in U.S. Pat. No. 7,588,782.

[3] = Laser particle size (Coulter LS230), aggregate D10/D50/D90 by volume; type: physicochemical; details: Renazorb-014 (LDOC), second block
From the text: Aggregate size as described herein is either determined by scanning electron microscopy (SEM) or laser diffraction on a Coulter LS230. […] But these appear more aggregated.
Laser particle size data can be produced using, for example, a LS230 Laser Particle Size Analyzer manufactured by Coulter.
Average the runs using the LS230 software and have the software calculate the desired volume D results (i.e. for D1, D10, D50, D90, and D99).
The Refractive Index (RI) of a solid is required to perform an accurate laser PSD analysis for particles under 1 μm. The RI of the test materials were not listed in literature at the time this method was developed. […] Therefore an RI of 2.1 was chosen.

[4] = Bulk density; type: physicochemical; details: Renazorb-014 (LDOC), second block
Experimental: Bulk density in accordance with the invention can be determined by standard methods.
Graduated Cylinder Tare Weight was determined to be 225 g. 75 grams of sample was sieved into the graduated cylinder. The Gross Weight was determined to be 299.4 g. The volume of this sample was measured to be 141 mL. Thus, the Bulk Density of the powder is: Bulk Density (g/cc)=(299.4−225)/141=74.4/141=0.5277 g/cc Rounding this value to two decimal places gives a final reported value of 0.53 g/cc. 9.2 RSD=(R1−R2)×100/R1 where: RSD=Relative Standard Deviation (%) R1 & R2=Result of individual repeat (g/cc) 9.3 SR=R×100/V where: SR=Standard Recovery (%) R=Result for Reference Standard (g/cc) V=Historical average for standard (g/cc)

## O=C([O-])[O-].[La+3].[La+3].[O-2].[O-2] [Batch 110508, lanthanum dioxycarbonate]
[1]
  Po4 binding @4.5 pH (rxn comp. %): 92%
[2]
  Surface Area: 16.7 m^2/g
[3]
  D10 Sonicated SOP-QC-GMP-2402: 6.6 um
  D50 Sonicated SOP-QC-GMP-2402: 50 um
  D90 Sonicated SOP-QC-GMP-2402: 151 um
[4]
  Bulk Density: 0.56 g/cc
